In the supplement of paper PMC10307832:

How the values were obtained:
Test in all cases: relative viability (nuclei count vs DMSO), 5 days (fraction); higher = more cells survive
LOU-NH91 = tested on: LOU-NH91
Outline: (§1)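 The day after seeding in 1536-well plates, lung cancer cell lines were treated by pin tool with a single drug, or with a fixed anchor-drug dose together with five library-drug doses (not always all listed) in √10 steps. After 5 days, a combined fix-and-stain solution (final 0.05% Triton X-100, 1% formaldehyde, 1 ug/ml Hoechst) was added. Nuclei counted on 4× images gave relative viability as treated counts over vehicle counts, reported as the median of duplicate plates.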

NCI-H1395 = tested on: NCI-H1395
Outline: as §1

NCI-H2087 = tested on: NCI-H2087
Outline: as §1

NCI-H2126 = tested on: NCI-H2126
Outline: as §1

HARA = tested on: HARA
Outline: as §1

NCI-H2170 = tested on: NCI-H2170
Outline: as §1

RERF-LC-KJ = tested on: RERF-LC-KJ
Outline: as §1

NCI-H1993 = tested on: NCI-H1993
Outline: as §1

HOP-62 = tested on: HOP-62
Outline: as §1

COR-L 105 = tested on: COR-L 105
Outline: as §1

EMC-BAC-2 = tested on: EMC-BAC-2
Outline: as §1

BEN = tested on: BEN
Outline: as §1

UMC-11 = tested on: UMC-11
Outline: as §1

LXF-289 = tested on: LXF-289
Outline: as §1

H3255 = tested on: H3255
Outline: as §1

201T = tested on: 201T
Outline: as §1

SW 900 = tested on: SW 900
Outline: as §1

SK-MES-1 = tested on: SK-MES-1
Outline: as §1

NCI-H650 = tested on: NCI-H650
Outline: as §1

LC-2-ad = tested on: LC-2-ad
Outline: as §1

LU99A = tested on: LU99A
Outline: as §1

NCI-H1563 = tested on: NCI-H1563
Outline: as §1

## Cc1cn(-c2cc(NC(=O)c3ccc(C)c(Nc4nccc(-c5cccnc5)n4)c3)cc(C(F)(F)F)c2)cn1 [Nilotinib] + CCNC(=O)c1noc(-c2cc(C(C)C)c(O)cc2O)c1-c1ccc(CN2CCOCC2)cc1 [Luminespib] (partner 0.01 µM)
LOU-NH91; first compound 0.001 µM
  relative viability: 0.318
LOU-NH91; first compound 0.003162 µM
  relative viability: 0.308
LOU-NH91; first compound 0.01 µM
  relative viability: 0.346
LOU-NH91; first compound 0.03162 µM
  relative viability: 0.276
LOU-NH91; first compound 0.1 µM
  relative viability: 0.321
NCI-H1395; first compound 0.001 µM
  relative viability: 0.713
NCI-H1395; first compound 0.003162 µM
  relative viability: 0.39
NCI-H1395; first compound 0.01 µM
  relative viability: 0.702
NCI-H1395; first compound 0.03162 µM
  relative viability: 0.713
NCI-H1395; first compound 0.1 µM
  relative viability: 0.814
NCI-H2087; first compound 0.001 µM
  relative viability: 0.162
NCI-H2087; first compound 0.003162 µM
  relative viability: 0.219
NCI-H2087; first compound 0.01 µM
  relative viability: 0.202
NCI-H2087; first compound 0.03162 µM
  relative viability: 0.172
NCI-H2087; first compound 0.1 µM
  relative viability: 0.164
NCI-H2126; first compound 0.001 µM
  relative viability: 0.832
NCI-H2126; first compound 0.003162 µM
  relative viability: 1
NCI-H2126; first compound 0.01 µM
  relative viability: 1.1
NCI-H2126; first compound 0.03162 µM
  relative viability: 0.936
NCI-H2126; first compound 0.1 µM
  relative viability: 0.596
HARA; first compound 0.001 µM
  relative viability: 0.569
HARA; first compound 0.003162 µM
  relative viability: 1.24
HARA; first compound 0.01 µM
  relative viability: 1.14
HARA; first compound 0.03162 µM
  relative viability: 0.842
HARA; first compound 0.1 µM
  relative viability: 0.482
NCI-H2170; first compound 0.001 µM
  relative viability: 0.591
NCI-H2170; first compound 0.003162 µM
  relative viability: 1.11
NCI-H2170; first compound 0.01 µM
  relative viability: 1.5
NCI-H2170; first compound 0.03162 µM
  relative viability: 0.328
NCI-H2170; first compound 0.1 µM
  relative viability: 0.877
RERF-LC-KJ; first compound 0.001 µM
  relative viability: 1.3
RERF-LC-KJ; first compound 0.003162 µM
  relative viability: 1.47
RERF-LC-KJ; first compound 0.01 µM
  relative viability: 1.34
RERF-LC-KJ; first compound 0.03162 µM
  relative viability: 0.946
RERF-LC-KJ; first compound 0.1 µM
  relative viability: 1.22
NCI-H1993; first compound 0.001 µM
  relative viability: 0.928
NCI-H1993; first compound 0.003162 µM
  relative viability: 0.456
NCI-H1993; first compound 0.01 µM
  relative viability: 0.912
NCI-H1993; first compound 0.03162 µM
  relative viability: 0.773
NCI-H1993; first compound 0.1 µM
  relative viability: 0.765
HOP-62; first compound 0.001 µM
  relative viability: 0.727
HOP-62; first compound 0.003162 µM
  relative viability: 0.792
HOP-62; first compound 0.01 µM
  relative viability: 0.839
HOP-62; first compound 0.03162 µM
  relative viability: 0.786
HOP-62; first compound 0.1 µM
  relative viability: 0.529
COR-L 105; first compound 0.001 µM
  relative viability: 0.764
COR-L 105; first compound 0.003162 µM
  relative viability: 0.711
COR-L 105; first compound 0.01 µM
  relative viability: 0.75
COR-L 105; first compound 0.03162 µM
  relative viability: 0.698
COR-L 105; first compound 0.1 µM
  relative viability: 0.853
EMC-BAC-2; first compound 0.001 µM
  relative viability: 1.09
EMC-BAC-2; first compound 0.003162 µM
  relative viability: 1.36
EMC-BAC-2; first compound 0.01 µM
  relative viability: 1.22
EMC-BAC-2; first compound 0.03162 µM
  relative viability: 1.01
EMC-BAC-2; first compound 0.1 µM
  relative viability: 1.11
BEN; first compound 0.001 µM
  relative viability: 0.563
BEN; first compound 0.003162 µM
  relative viability: 0.275
BEN; first compound 0.01 µM
  relative viability: 0.378
BEN; first compound 0.03162 µM
  relative viability: 0.277
BEN; first compound 0.1 µM
  relative viability: 0.256
UMC-11; first compound 0.001 µM
  relative viability: 0.978
UMC-11; first compound 0.003162 µM
  relative viability: 1.22
UMC-11; first compound 0.01 µM
  relative viability: 1.26
UMC-11; first compound 0.1 µM
  relative viability: 1.39
LXF-289; first compound 0.001 µM
  relative viability: 0.655
LXF-289; first compound 0.003162 µM
  relative viability: 1.02
LXF-289; first compound 0.01 µM
  relative viability: 0.988
LXF-289; first compound 0.03162 µM
  relative viability: 0.573
LXF-289; first compound 0.1 µM
  relative viability: 0.649
H3255; first compound 0.001 µM
  relative viability: 0.9
H3255; first compound 0.003162 µM
  relative viability: 0.733
H3255; first compound 0.03162 µM
  relative viability: 0.922
H3255; first compound 0.1 µM
  relative viability: 0.325
201T; first compound 0.003162 µM
  relative viability: 1.13
201T; first compound 0.01 µM
  relative viability: 1.16
201T; first compound 0.03162 µM
  relative viability: 1.11
201T; first compound 0.1 µM
  relative viability: 1.03
SW 900; first compound 0.001 µM
  relative viability: 0.177
SW 900; first compound 0.003162 µM
  relative viability: 0.176
SW 900; first compound 0.01 µM
  relative viability: 0.164
SW 900; first compound 0.03162 µM
  relative viability: 0.186
SW 900; first compound 0.1 µM
  relative viability: 0.198
SK-MES-1; first compound 0.001 µM
  relative viability: 0.784
SK-MES-1; first compound 0.003162 µM
  relative viability: 0.985
SK-MES-1; first compound 0.01 µM
  relative viability: 0.927
SK-MES-1; first compound 0.03162 µM
  relative viability: 0.672
SK-MES-1; first compound 0.1 µM
  relative viability: 0.626
NCI-H650; first compound 0.001 µM
  relative viability: 0.687
NCI-H650; first compound 0.003162 µM
  relative viability: 0.564
NCI-H650; first compound 0.01 µM
  relative viability: 0.792
NCI-H650; first compound 0.03162 µM
  relative viability: 0.742
NCI-H650; first compound 0.1 µM
  relative viability: 0.79
LC-2-ad; first compound 0.001 µM
  relative viability: 0.85
LC-2-ad; first compound 0.003162 µM
  relative viability: 1.15
LC-2-ad; first compound 0.01 µM
  relative viability: 1.21
LC-2-ad; first compound 0.03162 µM
  relative viability: 0.947
LC-2-ad; first compound 0.1 µM
  relative viability: 0.8
LU99A; first compound 0.001 µM
  relative viability: 0.227
LU99A; first compound 0.01 µM
  relative viability: 0.274
LU99A; first compound 0.03162 µM
  relative viability: 0.219
LU99A; first compound 0.1 µM
  relative viability: 0.213
NCI-H1563; first compound 0.001 µM
  relative viability: 0.546
NCI-H1563; first compound 0.003162 µM
  relative viability: 0.475
NCI-H1563; first compound 0.01 µM
  relative viability: 0.534
NCI-H1563; first compound 0.03162 µM
  relative viability: 0.51
NCI-H1563; first compound 0.1 µM
  relative viability: 0.441
